Experiments:
[1] = Dynamic PET/CT imaging, SUVmean analysis; assay type: in vivo; conditions: healthy mice, 1.5 h postinjection
Method: (§1) [^52Mn]Mn-CHXPYAN and [^52Mn]Mn-PYAN radiocomplexes were evaluated in vivo through 90 min dynamic PET/CT imaging of heathy mice followed by an ex vivo biodistribution analysis. Similarly, [^52Mn]MnCl2 was also studied as a control.
Regions of interest (ROIs) were manually drawn using CT images to determine the standard uptake value (SUVmean) using VivoQuant imaging software.
(§2) [^52Mn]Mn-CHXPYAN and [^52Mn]Mn-PYAN were synthesized with molar specific activities of 80 and 60 MBq/μmol, respectively. 1.04 ± 0.07 MBq (28 ± 2 μCi) of the radiocomplexes in 100 μL injection doses was prepared. The mice (n = 4 per group) were anesthetized with 2.5% isoflurane in oxygen and were injected via the retroorbital sinus. For comparison purposes, 1.04 ± 0.07 MBq (28 ± 2 μCi) of [^52Mn]MnCl2, pH 7 was also injected. After injection, mice were imaged on a Sofie GNEXT PET/CT scanner for a 90 min dynamic scan (9 frames of 10 min each) followed by a 3 min CT at 80 kVp for anatomical reference. PET images were reconstructed via 3D-OSEM (Ordered Subset Expectation Maximization) algorithm (24 subsets and 3 iterations), with random, attenuation, and decay correction, and CT was reconstructed with the modified Feldkamp algorithm and analyzed using VivoQuant 4.0 (Invicro Imaging Service and Software, Boston MA) software. After imaging, mice were euthanized, and organs were collected, weighed, and counted for associated radioactivity on an automated gamma counter. Radioactivity uptake was calculated as the percent injected dose per gram of tissue (% ID/g). Following the reconstruction of the images, ROIs (heart, liver, kidneys, muscle, and bone) were hand-drawn to determine the SUVs using the VivoQuant imaging software.

[2] = Serum stability of the 52Mn radiocomplexes, human serum; assay type: in vitro ADME; conditions: for intact complex / % activity of pellet / % activity of supernatant: 37 °C; for intact complex: 5 days
Method: (§3) The ^52Mn radiocomplexes were incubated with human or mouse serum at 37 °C. 50 μL of the radiocomplexes in PBS was combined with 500 μL of serum in triplicate and incubated at 37 °C for over 5 days. At indicated time points, 50 μL of the reaction mixture was removed and proteins were precipitated by addition of 50 μL of methanol. The precipitated proteins were centrifuged before iTLC measurements were performed over a period of 5 days on the supernatant. All the radio-TLC chromatograms for evaluation of stabilities are available in the Supporting Information section as Figures S9–S12.

[3] = DTPA challenge of the radiocomplexes; assay type: physicochemical; conditions: DTPA (5 equiv), 37 °C
Method: (§4) Assessment of the stability and kinetic inertness of the radiocomplexes before in vivo evaluation was conducted to assess the possibilities of transchelation. In vitro stability assays including incubating the radiocomplexes with an excess (100 μM) of biologically relevant metal ions (Mg^2+, Zn^2+, Fe^2+, and Cu^2+), DTPA, and mouse and human serum were conducted.
(§5) For metal challenge studies, a 10 molar excess of 100 μM of metal ions in chloride solutions including CuCl2, ZnCl2, FeCl2, and MgCl2 relative to ligand concentration was incubated with the radiocomplexes at 37 °C. A 5 molar excess of DTPA was also added to compete with ^52Mn in the radiocomplexes. Decomplexation was monitored by radio-iTLC over a period of 5 days.

[4] = Serum stability of the 52Mn radiocomplexes, mouse serum; assay type: in vitro ADME; conditions: for intact complex / % activity of pellet / % activity of supernatant: 37 °C; for intact complex: 5 days
Method: as §3

[5] = Metal challenge of the radiocomplexes; assay type: physicochemical
Method: as §4, §5

[6] = Ex vivo biodistribution after PET/CT; assay type: in vivo, mice
Method: as §1, §2

[7] = healthy mice, 1.5 h postinjection, mean ± SD, n = 4

[52Mn+2].c1cc2nc(c1)CN[C@@H]1CCCC[C@H]1NCc1cccc(n1)CN[C@@H]1CCCC[C@H]1NC2 [[^52Mn]Mn-CHXPYAN]
SUVmean, kidneys [1]: 0.20 ± 0.03 | SUVmean, liver [1]: 0.10 ± 0.02 | intact complex [2]: 98.04 ± 0.18% | % activity of pellet ([2]; day 1, average): 13.09% | % activity of supernatant ([2]; day 1, average): 86.91% | % activity of pellet ([2]; day 2, average): 12.54% | % activity of supernatant ([2]; day 2, average): 87.45% | % activity of pellet ([2]; day 3, average): 14.46% | % activity of supernatant ([2]; day 3, average): 85.54% | % activity of pellet ([2]; day 4, average): 10.33% | % activity of supernatant ([2]; day 4, average): 89.66% | % activity of pellet ([2]; day 5, average): 9.31% | % activity of supernatant ([2]; day 5, average): 90.7% | radioactivity associated with the protein pellet ([2]; all time points): < 15% | intact complex ([3]; day 5): 5.73 ± 0.25% | intact complex [4]: 96.31 ± 1.34% | % activity of pellet ([4]; day 1, average): 10.33% | % activity of supernatant ([4]; day 1, average): 89.66% | % activity of pellet ([4]; day 2, average): 10.82% | % activity of supernatant ([4]; day 2, average): 89.18% | % activity of pellet ([4]; day 3, average): 12.07% | % activity of supernatant ([4]; day 3, average): 87.93% | % activity of pellet ([4]; day 4, average): 14.33% | % activity of supernatant ([4]; day 4, average): 85.66% | % activity of pellet ([4]; day 5, average): 12.14% | % activity of supernatant ([4]; day 5, average): 87.67% | radioactivity associated with the protein pellet ([4]; all time points): < 15% | intact complex ([5]; 10 molar excess of Cu^2+, day 5): 14.56 ± 1.09% | intact complex ([5]; 10 molar excess of Zn^2+, day 5): 8.14 ± 1.76% | Biodistribution, Blood [6, 7]: 0.14 ± 0.01 % ID/g | Biodistribution, Brain [6, 7]: 0.03 ± 0.01 % ID/g | Biodistribution, Fat [6, 7]: 0.11 ± 0.13 % ID/g | Biodistribution, Femur [6, 7]: 0.09 ± 0.04 % ID/g | Biodistribution, Heart [6, 7]: 0.21 ± 0.01 % ID/g | Biodistribution, Kidney [6, 7]: 11.27 ± 1.11 % ID/g | Biodistribution, L. Intestine [6, 7]: 3.45 ± 1.44 % ID/g | Biodistribution, Liver [6, 7]: 1.72 ± 0.93 % ID/g | Biodistribution, Lungs [6, 7]: 0.26 ± 0.12 % ID/g | Biodistribution, Muscle [6, 7]: 0.02 ± 0.01 % ID/g | Biodistribution, Pancreas [6, 7]: 0.20 ± 0.09 % ID/g | Biodistribution, S. Intestine [6, 7]: 2.32 ± 0.83 % ID/g | Biodistribution, Skin [6, 7]: 0.08 ± 0.04 % ID/g | Biodistribution, Spleen [6, 7]: 0.22 ± 0.18 % ID/g | Biodistribution, Stomach [6, 7]: 0.08 ± 0.04 % ID/g

[52Mn+2].c1cc2nc(c1)CNCCNCc1cccc(n1)CNCCNC2 [[^52Mn]Mn-PYAN]
SUVmean, kidneys [1]: 1.70 ± 0.26 | SUVmean, liver [1]: 0.77 ± 0.14 | intact complex [2]: 92.78 ± 1.22% | intact complex ([3]; day 1): 2.32 ± 0.66% | intact complex [4]: 90.67 ± 1.12% | intact complex ([5]; 10 molar excess of Cu^2+, day 1): < 4% | intact complex ([5]; 10 molar excess of Zn^2+, day 1): < 4% | Biodistribution, Blood [6, 7]: 0.70 ± 0.20 % ID/g | Biodistribution, Brain [6, 7]: 0.45 ± 0.09 % ID/g | Biodistribution, Fat [6, 7]: 1.03 ± 0.50 % ID/g | Biodistribution, Femur [6, 7]: 0.80 ± 0.30 % ID/g | Biodistribution, Heart [6, 7]: 1.85 ± 0.71 % ID/g | Biodistribution, Kidney [6, 7]: 63.34 % ID/g | Biodistribution, Liver [6, 7]: 30.39 ± 11.46 % ID/g | Biodistribution, Lungs [6, 7]: 1.28 ± 0.51 % ID/g | Biodistribution, Muscle [6, 7]: 0.18 ± 0.05 % ID/g | Biodistribution, Pancreas [6, 7]: 2.41 ± 1.60 % ID/g | Biodistribution, Skin [6, 7]: 0.32 ± 0.18 % ID/g | Biodistribution, Spleen [6, 7]: 1.33 ± 0.93 % ID/g | Biodistribution, Stomach [6, 7]: 1.29 ± 0.53 % ID/g | Biodistribution, L. Intestine ([6]; mouse, in vivo, 1.5 h): 2.69 ± 0.82 % ID/g | Biodistribution, S. Intestine ([6]; mouse, in vivo, 1.5 h): 13.00 ± 2.35 % ID/g
